Experimental data published in patent publication US9662339B2, “Benzodioxane inhibitors of leukotriene production for combination therapy” (Boehringer Ingelheim International GmbH, priority 2012, dated 2017).

Legend:
human LTA4 hydrolase = human LTA4 hydrolase (Homo sapiens (Human), UniProt P09960); experiment: LTA4H Enzyme assay (cleavage of Arg-AMC, fluorescence); format: biochemical; details: LTA4H Enzyme 1 nM, Arg-AMC substrate 50 μM, room temperature 1 h
Method: The compounds of the invention are assessed for the ability to interact with human LTA4 hydrolase in an enzymatic assay that measures the ability of the enzyme to cleave the peptide bond of arginyl-aminomethylcoumarin (Arg-AMC). LTA4H Enzyme (1 nM final), Arg-AMC substrate (50 μM final), and compound are combined in a reaction buffer (50 mM Tris-HCl (pH 7.5), 100 mM KCl, 0.5% bovine serum albumin) at room temperature for 1 h. The formation of product is assessed by measuring the fluorescence of aminomethylcoumarin product (excitation wavelength 380 nm/emission wavelength 460 nm).

[1] = test system: New Zealand white rabbit model of atherosclerosis; experiment: New Zealand white rabbit model of atherosclerosis, combination with simvastatin; format: in vivo
Method: In Vivo Studies Materials and Method: Rabbit Atherosclerosis Study Methods
The in-life portions of these studies were conducted at Covance Labs (Greenfield, Ind.). NZW rabbits were placed on a HF/HC diet manufactured by Research Diets Inc. (C30355) containing 0.25% cholesterol, 3% peanut oil, and 3% coconut oil for 3 weeks before randomization into treatment groups of 23 animals based on cholesterol levels and LTB4 production. Rabbits with cholesterol levels below 250 mg/dL at the start of treatment were removed from further analysis. The rabbits were fed 125 g of rabbit chow each day and both food consumption and body weights were measured throughout the study period. After 3 weeks the rabbits were either continued on this same diet for 10 weeks (control) or treated with Compound 200 in the same food formulation. Compound treated groups are group 1: compound 200 (3 mg/kg) and simvastatin (2.5 mg/kg); and group 2: compound 200 (15 mg/kg) and simvastatin (2.5 mg/kg). Another group of rabbits were treated with simvastatin alone at a dose of 2.5 mg/kg. During this time, plasma samples were taken for cholesterol, compound exposure, ALT and AST activity, and ex vivo LTB4 production at treatment week 0, 2, 4 and 10. Plasma samples for HDL and LDL levels were taken at week 2, 4 and 10. The animals were sacrificed after ten weeks of treatment, perfused with 10% formalin, and their descending aortas dissected out and placed in […] for transport to Boehringer Ingelheim Pharmaceuticals Inc. for processing. The aortas were pinned out onto the silicone surface inside a metal dish and stained with Sudan IV stain. Atherosclerosis development was determined by image analysis software after photographing the vessels. The percentage of the total vessel staining positive was determined
The mean value of each parameter was calculated for each different treatment group and compared to the control value. A one way ANOVA was used to compare treatment groups to the control group using a Dunnett's test for multiplicity of measures using Excell Stat software. As a pre-planned measurement the mean value of compound 200 treatment groups were individually compared to the simvastatin alone group by a Student's T test. Statistical significance was considered at the p<0.05 level.

[2] = test system: apoE-/- mouse model of atherosclerosis; experiment: apoE-/- mouse model of atherosclerosis; format: in vivo
[3] = test system: synthesis of LTB4 in human whole blood; experiment: LTB4 production inhibition assay in human whole blood (HWB); format: cell-based; details: heparinized human whole blood, calcimycin 20 μM, 37° C.
Method: The compounds of the invention are additionally tested in a human whole blood (HWB) assay to determine their ability to inhibit the synthesis of LTB4 in a cellular system. Compounds are combined with heparinized human whole blood and incubated for 15 minutes at 37° C. Calcimycin (20 μM final, prepared in phosphate-buffered saline, pH 7.4) is then added and the mixture is incubated for another 30 minutes at 37° C. The samples are centrifuged for 5 min at low speed (1500×g) and the plasma layer is removed. Plasma LTB4 concentrations are then measured using an antibody-based homogenous time-resolved fluorescence method (CisBio, Bedford, Mass.). In general, the preferred potency range (IC50) of compounds in the HWB assay is between 10 nM to 10 μM, the more preferred potency range is 10 nM to 1 μM, and the most preferred potency range is 10 nM to 100 nM.

[4] = in combination with simvastatin, compared to the simvastatin treated group

Chain of human LTA4 hydrolase (P09960 whole entry): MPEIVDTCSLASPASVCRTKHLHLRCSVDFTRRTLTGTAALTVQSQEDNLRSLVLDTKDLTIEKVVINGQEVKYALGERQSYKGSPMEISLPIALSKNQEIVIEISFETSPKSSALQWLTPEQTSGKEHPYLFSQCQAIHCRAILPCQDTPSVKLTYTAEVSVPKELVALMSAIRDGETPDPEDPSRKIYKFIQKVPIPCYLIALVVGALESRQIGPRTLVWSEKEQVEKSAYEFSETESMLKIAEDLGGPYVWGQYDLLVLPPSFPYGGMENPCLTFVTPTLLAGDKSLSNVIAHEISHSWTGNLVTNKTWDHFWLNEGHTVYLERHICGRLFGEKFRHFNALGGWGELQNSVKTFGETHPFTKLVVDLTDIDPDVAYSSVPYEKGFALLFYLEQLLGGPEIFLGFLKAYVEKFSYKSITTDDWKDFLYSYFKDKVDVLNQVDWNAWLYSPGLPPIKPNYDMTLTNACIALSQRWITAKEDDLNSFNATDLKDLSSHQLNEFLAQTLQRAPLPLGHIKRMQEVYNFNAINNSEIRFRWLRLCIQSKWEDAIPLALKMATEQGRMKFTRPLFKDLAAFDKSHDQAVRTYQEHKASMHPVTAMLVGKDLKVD

IC50 (human LTA4 hydrolase) [nM] | Structure (SMILES) | other results
0.39 | c1ccc2c(c1)OC[C@H](c1ccc(CN3CCCC3)cc1)O2 [Example 196, 1-[(S)-4-(2,3-dihydro-benzo[1,4]dioxin-2-yl)-benzyl]-pyrrolidine] | 
2.69 | c1ccc2c(c1)OC[C@@H](c1ccc(CN3CCCC3)cc1)O2 [Example 197, 1-[(R)-4-(2,3-dihydro-benzo[1,4]dioxin-2-yl)-benzyl]-pyrrolidine] | 
2.28 | c1ccc2c(c1)OC[C@H](c1ccc(CN3CCOCC3)cc1)O2 [Example 198, 4-[(S)-4-(2,3-dihydro-benzo[1,4]dioxin-2-yl)-benzyl]-morpholine] | 
40.1 | c1ccc2c(c1)OC[C@@H](c1ccc(CN3CCOCC3)cc1)O2 [Example 199, 4-[(R)-4-(2,3-dihydro-benzo[1,4]dioxin-2-yl)-benzyl]-morpholine] | 

The next lines start with the compound.

Structure (SMILES) | IC50 (human LTA4 hydrolase) [nM] | other results
c1cncc(CNCc2ccc(C3COc4ccccc4O3)cc2)c1 (stereo not shown) [Example 54, 1-[4-(2,3-dihydro-1,4-benzodioxin-2-yl)phenyl]-N-(pyridin-3-ylmethyl)methanamine] | 5.93 | 
O=C(O)C1CCCN(Cc2ccc(C3COc4ccccc4O3)cc2)C1 (stereo not shown) [Example 113, 1-[4-(2,3-dihydro-1,4-benzodioxin-2-yl)benzyl]piperidine-3-carboxylic acid] | 2.49 | 
NC(=O)C1CCCN(Cc2ccc(C3COc4ccccc4O3)cc2)C1 (stereo not shown) [Example 114, 1-[4-(2,3-dihydro-1,4-benzodioxin-2-yl)benzyl]piperidine-3-carboxamide] | 0.77 | 
F[C@H]1CCN(Cc2ccc(C3COc4ccccc4O3)cc2)C1 (stereo partly drawn) [Example 115, (3S)-1-[4-(2,3-dihydro-1,4-benzodioxin-2-yl)benzyl]-3-fluoropyrrolidine] | 3.03 | 
OC1CCN(Cc2ccc([C@H]3COc4ccccc4O3)cc2)CC1 [Example 192, (S)-1-[4-(2,3-Dihydro-benzo[1,4]dioxin-2-yl)-benzyl]-piperidin-4-ol] | 0.43 | 
OC1CCN(Cc2ccc([C@@H]3COc4ccccc4O3)cc2)CC1 [Example 193, (R)-1-[4-(2,3-Dihydro-benzo[1,4]dioxin-2-yl)-benzyl]-piperidin-4-ol] | 5.35 | 
O=C1NCCC12CCN(Cc1ccc([C@H]3COc4ccccc4O3)cc1)CC2 [Example 194, 8-[(S)-4-(2,3-Dihydro-benzo[1,4]dioxin-2-yl)-benzyl]-2,8-diaza-spiro[4.5]decan-1-one] | 0.15 | 
O=C1NCCC12CCN(Cc1ccc([C@@H]3COc4ccccc4O3)cc1)CC2 [Example 195, 8-[(R)-4-(2,3-Dihydro-benzo[1,4]dioxin-2-yl)-benzyl]-2,8-diaza-spiro[4.5]decan-1-one] | 1.59 | 
O=C(O)C1CCN(Cc2ccc([C@H]3COc4ccccc4O3)cc2)CC1 [Example 200, (S)-1-[4-(2,3-dihydro-benzo[1,4]dioxin-2-yl)-benzyl]-piperidine-4-carboxylic acid] |  | reduction in plaque area within the descending aorta in addition to the reduction due to statin treatment ([1]; in combination with simvastatin 2.5 mg/kg vs simvastatin alone, 10 weeks chow dosing, p<0.05): 35%; plaque area in the descending aorta of rabbits (FIG. 1) ([1]; in combination with simvastatin compared to simvastatin treatment alone): further reduces plaque area; effect on body weight [1, 4]: no significant effects; effect on plasma cholesterol [1, 4]: no significant effects; effect on triglycerides [1, 4]: no significant effects; plaque area in the descending aorta [2]: reduce plaque area
COCC(=O)NC1CCN(Cc2ccc([C@H]3COc4cccnc4O3)cc2)CC1 [Example 252, N-{1-[(S)-4-(2,3-Dihydro-[1,4]dioxino[2,3-b]pyridin-3-yl)-benzyl]-piperidin-4-yl}-2-methoxy-acetamide] |  | IC50 [3]: 42 nM
